Measured values as given in patent US20170112861A1, “DRUG DELIVERY ENHANCER COMPRISING SUBSTANCE FOR ACTIVATING LYSOPHOSPHOLIPID RECEPTORS” (Osaka University, priority 2014, published 2017).

Test system: VE-cadherin in tumor blood vessels of LLC cell tumors
Assay: VE-cadherin expression in vascular endothelial cells of tumors after LPA administration
Type: in vivo, mice
Details: LPA 3 mg/kg i.p., 24 hours after administration
Procedure: LLC cells were subcutaneously inoculated into C57BL/6 NCrSlc mice aged 8 weeks (females, SLC, Inc.) in the same manner as in Example 1. An LPA administration solution was prepared in the same manner as in Example 1. Mice on day 9 post-inoculation of LLC cells (individuals with a tumor volume of 60 to 80 mm^3) were subjected to the experiment. The mice were divided into two groups: control group and LPA group (n=3). LPA was intraperitoneally administered to the mice of the LPA group at a dose of 3 mg/kg in 100 μL PBS. The tumors of the control group were harvested just after grouping, and the tumors of the LPA group were harvested at 24 hours after LPA administration. The tumor tissue specimens were immunostained in the same manner as in Example 1 except that the primary antibody and the secondary antibody were changed. The primary antibody was Purified […] Anti-mouse VE-cadherin (BD pharmingen), and the anti-mouse VE-cadherin antibody was diluted to 200-fold in blocking solution. The secondary antibody was Alexa Fluor 488 Goat Anti-rat IgG (Life technologies), and the antibody was diluted to 400-fold in blocking solution. The prepared specimens were observed and photographed under a confocal laser microscope (Leica). Z-stack images were acquired using a confocal laser microscope and analyzed for the expression level (fluorescence intensity) of VE-cadherin.

For lysophosphatidic acid [LPA], the “expression level (fluorescence intensity) of VE-cadherin from Z-stack images” value was “a strong fluorescence intensity on the cell membrane” and the “localization of VE-cadherin in tumor vascular endothelial cells” value was “VE-cadherin localized on the cell-cell junctions”.
